Measurements reported in US11957759B1, “Rapidly accelerated fibrosarcoma (RAF) degrading compounds and associated methods of use” (Arvinas Operations, Inc., priority 2022, dated 2024).

What was measured:
B-RAF V600E = target: T1, B-RAF V600E (Homo sapiens, UniProt P15056, V600E); experiment: Target protein degradation, assay C: T-Rex 293 cells, HA-BRAF_V600E, 384 well format; type: cell-based; details: T-Rex 293 HA-BRAF_V600E cells, 24 hours, Examples 83-269; for DC50: Assay C; for Dmax: T-REx-293, Assay C
T1 construct: expressed in transfected cells; host or cells: T-Rex 293 cells (Invitrogen #R71007)
How it was run: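 T-Rex 293 cells stably expressing doxycycline-induced (1 ng/mL) HA-BRAF V600E were treated 24 h at 37 °C with compound (300 nM–5 pM, 11 points, 0.5% DMSO). HA immunofluorescence was quantified by high-content imaging to give DC50 and Dmax (% of control); nuclei counts versus DMSO gauged toxicity.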

B-RAF G466V = target: T2, B-RAF G466V (Homo sapiens, UniProt P15056, G466V); experiment: Target protein degradation, assay D: T-Rex 293 cells, HA-BRAF_G466V, 384 well format; type: cell-based; details: T-Rex 293 HA-BRAF_G466V cells, 24 hours, Examples 83-269; for DC50: Assay D; for Dmax: T-REx-293, Assay D
T2 construct: expressed in transfected cells; host or cells: T-Rex 293 cells (Invitrogen #R71007)
How it was run: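 T-Rex 293 cells stably expressing doxycycline-induced (1 ng/mL) HA-BRAF G466V treated 24 h at 37 °C with PROTACs, 11-point 1:3 dilution, 300 nM to 5 pM final, 0.5% DMSO. Fixed cells immunostained for HA and imaged by high-content microscopy; DC50 and Dmax (% of control) derived, toxicity from nuclei counts versus DMSO.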

T1 sequence (P15056 whole entry V600E): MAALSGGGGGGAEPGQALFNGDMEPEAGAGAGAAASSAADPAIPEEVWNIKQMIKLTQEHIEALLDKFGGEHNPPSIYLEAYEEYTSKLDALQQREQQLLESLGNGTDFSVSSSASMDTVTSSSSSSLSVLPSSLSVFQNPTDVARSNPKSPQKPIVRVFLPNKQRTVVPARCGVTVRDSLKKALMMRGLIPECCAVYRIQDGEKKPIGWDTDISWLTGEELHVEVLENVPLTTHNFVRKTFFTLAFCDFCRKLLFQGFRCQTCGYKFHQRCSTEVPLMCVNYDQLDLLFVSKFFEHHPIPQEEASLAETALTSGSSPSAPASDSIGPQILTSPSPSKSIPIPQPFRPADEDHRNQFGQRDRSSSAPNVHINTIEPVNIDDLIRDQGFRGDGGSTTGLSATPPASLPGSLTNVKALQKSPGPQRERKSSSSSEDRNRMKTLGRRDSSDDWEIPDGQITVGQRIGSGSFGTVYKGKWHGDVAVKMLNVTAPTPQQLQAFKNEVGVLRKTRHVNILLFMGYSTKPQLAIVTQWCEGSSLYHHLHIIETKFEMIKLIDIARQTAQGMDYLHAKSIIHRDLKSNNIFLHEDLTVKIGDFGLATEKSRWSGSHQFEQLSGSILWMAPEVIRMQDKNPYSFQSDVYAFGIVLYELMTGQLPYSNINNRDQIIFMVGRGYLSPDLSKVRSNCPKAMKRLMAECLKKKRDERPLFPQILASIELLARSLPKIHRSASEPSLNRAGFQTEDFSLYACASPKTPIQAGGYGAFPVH
T2 sequence (P15056 whole entry G466V): as the sequence (P15056 whole entry V600E) above, with G466V, E600V counted along it

DC50 (B-RAF V600E) [nM] | Dmax (B-RAF V600E) [%] | DC50 (B-RAF G466V) [nM] | Dmax (B-RAF G466V) [%] | Compound
≤ 5 | ≤ 35 | > 30 | ≤ 35 | N#Cc1c(NS(=O)(=O)N2CC[C@@H](F)C2)ccc(F)c1Oc1ccc2ncn(-c3ccc(N4CCC5(CC4)CN(c4cccc6c4CN(C4CCC(=O)NC4=O)C6=O)C5)nc3)c(=O)c2c1 (stereo partly drawn) [Example 165, (3R)-N-(2-cyano-3-{[3-(6-{2-[2-(2,6-dioxopiperidin-3-yl)-1-oxo-2,3-dihydro-1H-isoindol-4-yl]-2,7-diazaspiro[3.5]nonan-7-yl}pyridin-3-yl)-4-oxo-3,4-dihydroquinazolin-6-yl]oxy}-4-fluorophenyl)-3-fluoropyrrolidine-1-sulfonamide]
5 to 50 | 35 to 70 | ≤ 1 | ≤ 35 | N#Cc1c(NS(=O)(=O)N2CC[C@@H](F)C2)ccc(F)c1Oc1ccc2ncn(-c3ccc(N4CCN(CC5CCN(c6ccc7c(c6)CN(C6CCC(=O)NC6=O)C7=O)CC5)CC4)c(F)c3)c(=O)c2c1 (stereo partly drawn) [Example 86, (3R)-N-{2-cyano-3-[(3-(4-[4-({1-[2-(2,6-dioxopiperidin-3-yl)-1-oxo-2,3-dihydro-1H-isoindol-5-yl]piperidin-4-yl}methyl)piperazin-1-yl]-3-fluorophenyl}-4-oxo-3,4-dihydroquinazolin-6-yl)oxy]-4-fluorophenyl}-3-fluoropyrrolidine-1-sulfonamide]
5 to 50 | 35 to 70 | 1 to 10 | ≤ 35 | N#Cc1c(NS(=O)(=O)N2CC[C@@H](F)C2)ccc(F)c1Oc1ccc2ncn(-c3ccc(C4CCN(CC5CCN(c6ccc7c(c6)CN([C@H]6CCC(=O)NC6=O)C7=O)CC5)C4)cc3)c(=O)c2c1 (stereo partly drawn) [Example 208, (3R)-N-(2-cyano-3-{[3-(4-{1-[(1-{2-[(3S)-2,6-dioxopiperidin-3-yl]-1-oxo-2,3-dihydro-1H-isoindol-5-yl}piperidin-4-yl)methyl]pyrrolidin-3-yl}phenyl)-4-oxo-3,4-dihydroquinazolin-6-yl]oxy}-4-fluorophenyl)-3-fluoropyrrolidine-1-sulfonamide]
> 500 | – | > 30 | 35 to 70 | N#Cc1c(NS(=O)(=O)N2CC[C@@H](F)C2)ccc(F)c1Oc1ccc2ncn(-c3ccc(N4CCN(C(=O)C5CCN(c6ccc7c(c6)CN(C6CCC(=O)NC6=O)C7=O)CC5)CC4)cc3)c(=O)c2c1 (single isomer, unassigned) [Example 241, (3R)-N-{2-cyano-3-[(3-{4-[4-(1-{2-[(3R*)-2,6-dioxopiperidin-3-yl]-1-oxo-2,3-dihydro-1H-isoindol-5-yl}piperidine-4-carbonyl)piperazin-1-yl]phenyl}-4-oxo-3,4-dihydroquinazolin-6-yl)oxy]-4-fluorophenyl}-3-fluoropyrrolidine-1-sulfonamide]
50 to 500 | 35 to 70 | 1 to 10 | 35 to 70 | N#Cc1c(NS(=O)(=O)N2CC[C@@H](F)C2)ccc(F)c1Oc1ccc2ncn(-c3ccc(N4CC5(CC(CN6CCC(c7ccc8c(c7)CN(C7CCC(=O)NC7=O)C8=O)CC6)C5)C4)cc3)c(=O)c2c1 (stereo partly drawn) [Example 190, (3R)-N-{2-cyano-3-[(3-(4-[6-({4-[2-(2,6-dioxopiperidin-3-yl)-1-oxo-2,3-dihydro-1H-isoindol-5-yl]piperidin-1-yl}methyl)-2-azaspiro[3.3]heptan-2-yl]phenyl}-4-oxo-3,4-dihydroquinazolin-6-yl)oxy]-4-fluorophenyl}-3-fluoropyrrolidine-1-sulfonamide]
50 to 500 | 35 to 70 | 1 to 10 | 35 to 70 | N#Cc1c(NS(=O)(=O)N2CC[C@@H](F)C2)ccc(F)c1Oc1ccc2ncn(-c3ccc(N4CC5(CCN(CC6CCN(c7ccc8c(c7)CN([C@@H]7CCC(=O)NC7=O)C8=O)CC6)CC5)C4)cc3)c(=O)c2c1 [Example 193, (3R)-N-(2-cyano-3-{[3-(4-{7-[(1-{2-[(3R)-2,6-dioxopiperidin-3-yl]-1-oxo-2,3-dihydro-1H-isoindol-5-yl}piperidin-4-yl)methyl]-2,7-diazaspiro[3.5]nonan-2-yl}phenyl)-4-oxo-3,4-dihydroquinazolin-6-yl]oxy}-4-fluorophenyl)-3-fluoropyrrolidine-1-sulfonamide]
50 to 500 | 35 to 70 | 1 to 10 | 35 to 70 | N#Cc1c(NS(=O)(=O)N2CC[C@@H](F)C2)ccc(F)c1Oc1ccc2ncn(-c3cnc(N4CC5(CN(CC6CCN(c7ccc8c(c7)C(=O)N(C7CCC(=O)NC7=O)C8=O)CC6)C5)C4)nc3)c(=O)c2c1 (stereo partly drawn) [Example 134, (3R)-N-{2-cyano-3-[(3-(2-[6-({1-[2-(2,6-dioxopiperidin-3-yl)-1,3-dioxo-2,3-dihydro-1H-isoindol-5-yl]piperidin-4-yl}methyl)-2,6-diazaspiro[3.3]heptan-2-yl]pyrimidin-5-yl}-4-oxo-3,4-dihydroquinazolin-6-yl)oxy]-4-fluorophenyl}-3-fluoropyrrolidine-1-sulfonamide]
50 to 500 | 35 to 70 | 1 to 10 | 35 to 70 | N#Cc1c(NS(=O)(=O)N2CC[C@@H](F)C2)ccc(F)c1Oc1ccc2ncn(-c3cccc(C4CCN(CC5CCN(c6ccc7c(c6)CN([C@H]6CCC(=O)NC6=O)C7=O)CC5)C4)c3)c(=O)c2c1 (stereo partly drawn) [Example 211, (3R)-N-(2-cyano-3-{[3-(3-{1-[(1-{2-[(3S)-2,6-dioxopiperidin-3-yl]-1-oxo-2,3-dihydro-1H-isoindol-5-yl}piperidin-4-yl)methyl]pyrrolidin-3-yl}phenyl)-4-oxo-3,4-dihydroquinazolin-6-yl]oxy}-4-fluorophenyl)-3-fluoropyrrolidine-1-sulfonamide]
5 to 50 | 35 to 70 | 1 to 10 | ≤ 35 | N#Cc1c(NS(=O)(=O)N2CC[C@@H](F)C2)ccc(F)c1Oc1ccc2ncn(-c3ccc(N4CCN(CC5CCN(c6ccc(N7CCC(=O)NC7=O)cc6)CC5)CC4)cc3)c(=O)c2c1 [Example 96, (3R)-N-{2-cyano-3-[(3-(4-[4-({1-[4-(2,4-dioxo-1,3-diazinan-1-yl)phenyl]piperidin-4-yl}methyl)piperazin-1-yl]phenyl}-4-oxo-3,4-dihydroquinazolin-6-yl)oxy]-4-fluorophenyl}-3-fluoropyrrolidine-1-sulfonamide]
5 to 50 | ≤ 35 | 1 to 10 | 35 to 70 | N#Cc1c(NS(=O)(=O)N2CC[C@@H](F)C2)ccc(F)c1Oc1ccc2ncn(-c3ccc(N4CCC(c5ccc6c(c5)CN(C5CCC(=O)NC5=O)C6=O)CC4)nc3)c(=O)c2c1 (stereo partly drawn) [Example 136, (3R)-N-(2-cyano-3-{[3-(6-{4-[2-(2,6-dioxopiperidin-3-yl)-1-oxo-2,3-dihydro-1H-isoindol-5-yl]piperidin-1-yl}pyridin-3-yl)-4-oxo-3,4-dihydroquinazolin-6-yl]oxy}-4-fluorophenyl)-3-fluoropyrrolidine-1-sulfonamide]
5 to 50 | 35 to 70 | ≤ 1 | ≤ 35 | N#Cc1c(NS(=O)(=O)N2CC[C@@H](F)C2)ccc(F)c1Oc1ccc2ncn(-c3ccc(N4CCN(CC5CCN(c6ccc(N7CCC(=O)NC7=O)c(F)c6)CC5)CC4)nc3)c(=O)c2c1 [Example 142, (3R)-N-{2-cyano-3-[(3-{6-[4-({1-[4-(2,4-dioxo-1,3-diazinan-1-yl)-3-fluorophenyl]piperidin-4-yl}methyl)piperazin-1-yl]pyridin-3-yl}-4-oxo-3,4-dihydroquinazolin-6-yl)oxy]-4-fluorophenyl}-3-fluoropyrrolidine-1-sulfonamide]
